Data as given in US9149468B2, “Multicomponent crystals made ([2-amino-6-(4-fluoro-benzylamino)-pyridin-3-yl]-carbamic acid ethyl ester and 2-[2-[(2,6-dichlorphenyl)-amino]-phenyl]-acetic acid” (TEVA GmbH, priority 2010, dated 2015).
Structures can show the parent of a compound that is named as a salt. Where two headings read alike, the source gives them in different places.

Columns and labels:
[1] = mice, 15 mg per kg flupirtine maleate combined with various dosages of NSAIDS; cited from earlier work
[2] = rat, 35 mg per kg flupirtine maleate combined with various dosages of NSAIDS; cited from earlier work
[3] = pain and inflammation model (methods of DE 36 65 538); format: in vivo; conditions: animal model
From the text: The methods disclosed therein are herewith incorporated as a reference, […]

Row | SMILES | effect on antinociceptive activity of paracetamol, acetyl salicylic acid, and diclofenac [1] | effect on antinociceptive activity of paracetamol, acetyl salicylic acid, and diclofenac [2] | effects in pain and inflammation model compared with the test results of DE 36 65 538 [3]
1 | CCOC(=O)Nc1ccc(NCc2ccc(F)cc2)nc1N [flupirtine maleate] | enhances | enhances | –
2 | CCOC(=O)Nc1ccc(NCc2ccc(F)cc2)nc1N.O=C(O)Cc1ccccc1Nc1c(Cl)cccc1Cl [multicomponent crystal according to the invention of ([2-amino-6-(4-fluoro-benzylamino)-pyridin-3-yl]carbamic acid ethyl ester and 2-[2-[(2,6-dichlorophenyl)-amino]-phenyl]acetic acid] | – | – | qualitatively comparable
